In US20100048503A1, “COMPOSITION FOR TREATMENT OF PANCREATIC CANCER” (Eisai R & D Management Co., Ltd., priority 2007, published 2010):
Where a name gives a salt, the structure may show the parent alone.

Legend:
[1] = system: Human pancreatic cancer cell line AsPC-1; experiment: Combination use with gemcitabine hydrochloride in subcutaneous transplanted (xenograft) model in nude mouse; type: in vivo; conditions: AsPC-1 xenograft; for Relative tumor volume on Day 29 Average ± standard deviation: nude mouse
Protocol: Human pancreatic cancer cell line AsPC-1 (purchased from ATCC) was cultured in RPMI1640 (containing 10% FBS) in a 5% carbon dioxide gas incubator at 37° C. to about 80% confluence, and then the cells were collected with trypsin-EDTA. A 5×10^7 cells/mL suspension was prepared with a phosphate buffer, and each 0.1 mL of the resulting cell suspension was subcutaneously transplanted to a nude mouse at the side of its body. Eleven days after the transplantation, 4-(3-chloro-4-(cyclopropylaminocarbonyl)aminophenoxy)-7-methoxy-6-quinolinecarboxamide (3, 10 or 30 mg/kg, once a day for four weeks, oral) and gemcitabine hydrochloride (purchased from Eli Lilly Japan) (200 mg/kg, four times every three days, intravenous) were administered alone or in combination. The major and minor axes of tumors were measured with Digimatic caliper (Mitsutoyo Corporation), and tumor volumes and relative tumor volumes were calculated according to the following formulae: […] Relative Tumor Volume (RTV)=Tumor volume on measurement day/Tumor volume on the first administration day. […] The first day of administration was considered Day 1.

[2] = system: Human pancreatic cancer cell line AsPC-1; experiment: Combination use with erlotinib hydrochloride in subcutaneous transplanted (xenograft) model in nude mouse; type: in vivo; conditions: oral, AsPC-1 xenograft; for Relative tumor volume on Day 29 Average ± standard deviation: once a day for four weeks, nude mouse
Protocol: Human pancreatic cancer cell line AsPC-1 (purchased from ATCC) was cultured in RPMI1640 (containing 10% FBS) in a 5% carbon dioxide gas incubator at 37° C. to about 80% confluence, and then the cells were collected with trypsin-EDTA. A 5×10^7 cells/mL suspension was prepared with a phosphate buffer, and each 0.11 mL of the resulting cell suspension was subcutaneously transplanted to a nude mouse at the side of its body. Ten days after the transplantation, 4-(3-chloro-4-(cyclopropylaminocarbonyl)aminophenoxy)-7-methoxy-6-quinolinecarboxamide (10 mg/kg, once a day for four weeks) and erlotinib hydrochloride (50 mg/kg, once a day for four weeks) were orally administered alone or in combination. The major and minor axes of tumors were measured with Digimatic caliper (Mitsutoyo Corporation), and tumor volumes and relative tumor volumes were calculated according to the following formulae: […] Relative Tumor Volume (RTV)=Tumor volume on measurement day/Tumor volume on the first administration day. […] The first day of administration was considered Day 1.

[3] = Compound A 3, 10 or 30 mg/kg oral in combination with gemcitabine hydrochloride 200 mg/kg intravenous
[4] = Compound A 10 mg/kg in combination with erlotinib hydrochloride 50 mg/kg

Q: `Nc1ccn([C@@H]2O[C@H](CO)C(O)C2(F)F)c(=O)n1` (single isomer, unassigned; (+)) [Gemcitabine hydrochloride, (+)-2′-deoxy-2′,2′-difluorocytidene, reference compound] was tested. Which “Relative tumor volume on Day 29 Average ± standard deviation” value ([1]; Gemcitabine hydrochloride 200 mg/kg alone, four times every three days, intravenous) did it give?
A: Its value is 3.41 ± 0.41.

Q: What does the source list for `COc1cc2nccc(Oc3ccc(NC(=O)NC4CC4)c(Cl)c3)c2cc1C(N)=O` [Compound A, 4-(3-chloro-4-(cyclopropylaminocarbonyl)aminophenoxy)-7-methoxy-6-quinolinecarboxamide]?
A: Relative tumor volume on Day 29 Average ± standard deviation ([1]; Compound A 3 mg/kg alone, once a day for four weeks, oral): 2.10 ± 0.64; Relative tumor volume on Day 29 Average ± standard deviation ([1]; Compound A 10 mg/kg alone, once a day for four weeks, oral): 1.79 ± 0.56; Relative tumor volume on Day 29 Average ± standard deviation ([1]; Compound A 30 mg/kg alone, once a day for four weeks, oral): 0.88 ± 0.27; Anti-tumor effect of combination use compared with either agent alone [1, 3]: superior anti-tumor effect; Effect when used in combination with gemcitabine hydrochloride [1, 3]: additive effect; Relative tumor volume on Day 29 Average ± standard deviation ([2]; Compound A 10 mg/kg alone): 1.84 ± 1.31; Anti-tumor effect of combination use compared with either agent alone [2, 4]: superior anti-tumor effect; Effect when used in combination with erlotinib hydrochloride [2, 4]: additive effect

Q: `C#Cc1cccc(Nc2ncnc3cc(OCCOC)c(OCCOC)cc23)c1` [Erlotinib hydrochloride, 4-(3-ethynylphenylamino)-6,7-bis(2-methoxyethoxy)-quinazoline, reference compound] was tested. Which “Relative tumor volume on Day 29 Average ± standard deviation” value ([2]; Erlotinib hydrochloride 50 mg/kg alone) did it give?
A: Its value is 4.54 ± 0.18.
